The results in this text go back to patent publication US20260201008A1, “SECRETIN-DERIVED GLP1R SELECTIVE AGONISTS” (GUBRA A/S, priority 2023, published 2026).

The nature of series [1]: Turbidity of crude library peptides (absorbance at 600 nm). The format is physicochemical. The note with it: Physical stability of peptides. The essentials:
(§1)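 Values reflect mean ThT emission (ex 450, em 480 nm) over 72 h at 40° C, read every 10 min after 5 min shaking at 700 rpm, plus a single initial absorbance at 600 nm for turbidity. Peptides were at 267 μM, pH 4.0 acetate or pH 7.0 phosphate (50 mM), with 4 μM ThT.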

Series [2] can be described thus: Fibril formation of crude library peptides (Thioflavin T). The format is physicochemical. Details: key: average ThT fluorescence emission at 480 nm (ex 450 nm), raw units. As to conditions: Physical stability of peptides. The essentials: as §1
A further series addresses GLP1R (Homo sapiens, UniProt P43220). As to the kind of experiment: hGLP1R potency, cAMP accumulation in CHO-K1 cells stably overexpressing hGLP1R. The format is cell-based. Further details: host or cells: CHO-K1. As to conditions: for Selectivity: SCTR EC50/GLP1R EC50 ratio; for EC50: cAMP accumulation, CHO-K1 cells overexpressing hGLP1R. The essentials:
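Cells were plated in DPBS with 0.05% casein and 0.5 mM IBMX, then stimulated for 30 min at room temperature with test compound. cAMP was read by TR-FRET after one hour. EC50 came from variable-slope sigmoid nonlinear regression; purified peptides ran as 11-point 3-fold series, n=2.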
For orientation: Cyclic AMP is a second messenger, typically raised through Gs and lowered through Gi signalling.

Another series has as its target SCTR (Homo sapiens, UniProt P47872). As to the kind of experiment: hSCTR potency, cAMP accumulation in CHO-K1 cells stably overexpressing hSCTR. Format: cell-based. Details: alternatively Euroscreen ES-712-AF; FAST-0161L; host or cells: CHO-K1. The note with it: cAMP accumulation, CHO-K1 cells overexpressing hSCTR. The essentials:
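Division-arrested CHO-K1 cells stably expressing hSCTR were plated in DPBS with 0.05% casein and 0.5 mM IBMX, then stimulated with test peptide for 30 min at room temperature. cAMP was read by HTRF after one hour. EC50 came from variable-slope sigmoidal nonlinear regression.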

The mark [3] stands for this setting: read-out: pEC50 hGLPR1 (converted).
Where [4] appears, read: read-out: pEC50 hSCTR (converted).

Where two headings read alike, the source gives them in different places. Numbered stars: 1 amine (or outer) side, 2 acyl side, 3 side chain; on linkers, the order of the positions; unused ones are H or OH. Square brackets hold non-standard residues; d marks the D form. Side chains are listed from the residue outwards. Peptide text beside a SMILES is read from it. * marks the point of attachment. C20 diacid = O=C(O)CCCCCCCCCCCCCCCCCCC(=O)*; γGlu = O=C(O)[C@H](CCC(=O)[*:2])N[*:1]; AEEA = NCCOCCOCC(=O)O; Aib = CC(C)(N)C(=O)O

Sequence of GLP1R (P43220 24-463): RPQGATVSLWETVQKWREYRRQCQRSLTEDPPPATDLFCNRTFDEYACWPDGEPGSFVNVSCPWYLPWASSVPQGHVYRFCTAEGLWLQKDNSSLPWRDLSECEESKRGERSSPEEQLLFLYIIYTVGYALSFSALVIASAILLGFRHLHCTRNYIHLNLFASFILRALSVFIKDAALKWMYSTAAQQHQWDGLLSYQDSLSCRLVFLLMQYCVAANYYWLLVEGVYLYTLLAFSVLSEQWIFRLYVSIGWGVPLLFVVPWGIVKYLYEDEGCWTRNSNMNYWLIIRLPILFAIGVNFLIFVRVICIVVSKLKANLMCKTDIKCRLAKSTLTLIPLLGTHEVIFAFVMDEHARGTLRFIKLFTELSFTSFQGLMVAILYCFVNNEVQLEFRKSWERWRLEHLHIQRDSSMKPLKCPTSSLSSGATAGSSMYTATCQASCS
Sequence of SCTR (P47872 23-440): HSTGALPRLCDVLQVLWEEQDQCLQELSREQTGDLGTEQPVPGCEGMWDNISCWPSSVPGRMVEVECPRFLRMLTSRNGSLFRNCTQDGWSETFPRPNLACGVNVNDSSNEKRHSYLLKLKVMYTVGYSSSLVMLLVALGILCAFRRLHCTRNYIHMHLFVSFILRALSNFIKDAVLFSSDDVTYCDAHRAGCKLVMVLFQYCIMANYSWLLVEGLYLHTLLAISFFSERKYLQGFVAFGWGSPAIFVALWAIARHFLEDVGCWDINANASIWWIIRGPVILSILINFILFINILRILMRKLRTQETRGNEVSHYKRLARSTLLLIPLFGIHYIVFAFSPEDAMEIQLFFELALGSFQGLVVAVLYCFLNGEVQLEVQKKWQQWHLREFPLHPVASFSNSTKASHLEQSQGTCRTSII

For the compound `CC(C)C[C@H](NC(=O)[C@H](Cc1ccccc1)NC(=O)[C@H](CCCNC(=N)N)NC(=O)[C@H](CCC(N)=O)NC(=O)[C@H](CCC(=O)O)NC(=O)[C@H](C)NC(=O)[C@H](C)NC(=O)C(C)(C)NC(=O)[C@H](CCC(=O)O)NC(=O)[C@H](CCCCNC(=O)COCCOCCNC(=O)COCCOCCNC(=O)CC[C@H](NC(=O)CCCCCCCCCCCCCCCCCCC(=O)O)C(=O)O)NC(=O)[C@H](CC(C)C)NC(=O)[C@H](CCC(=O)O)NC(=O)[C@H](CO)NC(=O)[C@@H](NC(=O)[C@H](CC(=O)O)NC(=O)[C@H](CO)NC(=O)[C@@H](NC(=O)[C@H](Cc1ccccc1)NC(=O)[C@@H](NC(=O)CNC(=O)[C@H](CCC(=O)O)NC(=O)C(C)(C)NC(=O)[C@@H](N)Cc1c[nH]cn1)[C@@H](C)O)[C@@H](C)O)C(C)C)C(=O)N[C@@H](CCC(=O)O)C(=O)N[C@@H](Cc1c[nH]cn1)C(=O)N[C@@H](CC(C)C)C(=O)N[C@H](C(N)=O)C(C)C` [compound 18] (H-H[Aib]EGTFTSDVSELK([AEEA-AEEA-γGlu-C20 diacid])E[Aib]AAEQRFLEHLV-NH2), in series [1], the “Turbidity (pH 7)” value is 0.09. Besides, the Fibril formation in series [2] is listed as 12140. Further, on GLP1R, the Selectivity is recorded as 16263. The EC50 on GLP1R (setting [3]) is 0.0316 nM; at SCTR (setting [4]) it was 501 nM.
Regarding `CC[C@H](C)[C@H](NC(=O)[C@H](Cc1ccccc1)NC(=O)[C@H](CCCNC(=N)N)NC(=O)[C@H](CCC(N)=O)NC(=O)[C@H](CC(C)C)NC(=O)[C@H](C)NC(=O)[C@H](C)NC(=O)CNC(=O)[C@H](CCC(=O)O)NC(=O)[C@H](CC(C)C)NC(=O)[C@H](CC(C)C)NC(=O)[C@@H](NC(=O)[C@H](CO)NC(=O)C(C)(C)NC(=O)[C@H](CC(=O)O)NC(=O)[C@H](CO)NC(=O)[C@@H](NC(=O)[C@H](Cc1ccccc1)NC(=O)[C@@H](NC(=O)CNC(=O)[C@H](CCC(=O)O)NC(=O)C(C)(C)NC(=O)[C@@H](N)Cc1c[nH]cn1)[C@@H](C)O)[C@@H](C)O)C(C)C)C(=O)N[C@@H](CCC(N)=O)C(=O)N[C@@H](Cc1c[nH]c2ccccc12)C(=O)N[C@@H](CC(C)C)C(=O)N[C@H](C(N)=O)C(C)C` [compound 110] (H-H[Aib]EGTFTSD[Aib]SVLLEGAALQRFIQWLV-NH2), the “Turbidity (pH 7)” value in series [1] turned out to be 0.15. In series [2], this compound returned a Fibril formation of 3449. For the same compound, the EC50 on GLP1R (read-out: hGLP1R pEC50 (converted)) was 0.2 nM; on SCTR (read-out: hSCTR pEC50 (converted)), 2000 nM. Moreover, the “SCTR EC50/GLP1R EC50 ratio” value at GLP1R (selectivity for hGLP1R over hSCTR, cAMP accumulation in CHO-K1 cells) was 10257.
`CC(C)C[C@H](NC(=O)[C@H](Cc1ccccc1)NC(=O)[C@H](CCCNC(=N)N)NC(=O)[C@H](CCC(N)=O)NC(=O)[C@H](CCC(N)=O)NC(=O)[C@H](C)NC(=O)[C@H](C)NC(=O)[C@H](CCC(=O)O)NC(=O)[C@H](CCC(=O)O)NC(=O)[C@H](CCCCNC(=O)COCCOCCNC(=O)COCCOCCNC(=O)CC[C@H](NC(=O)CCCCCCCCCCCCCCCCCCC(=O)O)C(=O)O)NC(=O)[C@H](CC(C)C)NC(=O)[C@H](Cc1ccc(O)cc1)NC(=O)[C@H](CO)NC(=O)[C@@H](NC(=O)[C@H](CC(=O)O)NC(=O)[C@H](CO)NC(=O)[C@@H](NC(=O)[C@H](Cc1ccccc1)NC(=O)[C@@H](NC(=O)CNC(=O)[C@H](CCC(=O)O)NC(=O)C(C)(C)NC(=O)[C@@H](N)Cc1c[nH]cn1)[C@@H](C)O)[C@@H](C)O)C(C)C)C(=O)N[C@@H](CCC(=O)O)C(=O)N[C@@H](Cc1c[nH]cn1)C(=O)N[C@@H](CC(C)C)C(=O)N[C@H](C(N)=O)C(C)C` [compound 47] (H-H[Aib]EGTFTSDVSYLK([AEEA-AEEA-γGlu-C20 diacid])EEAAQQRFLEHLV-NH2): the “Turbidity (pH 7)” value in series [1] turned out to be 0.08. This compound also displayed a Fibril formation in series [2] of 13638. Moreover, the Selectivity on GLP1R stood at 17543. In addition, the EC50 at GLP1R (setting [3]) was 0.0158 nM; on SCTR (setting [4]), 251 nM.
